Results on 27 molecules are retold here after patent US7419984B2, “Pyrimidines and uses thereof” (Cell Therapeutics, Inc., priority 2002, dated 2008).

One may read the IC50 as the concentration at which inhibition is half-maximal.

The assay has as its target T1, human LPAAT-β (Homo sapiens, UniProt O15120).
T1 construct: the full-length human LPAAT-β cDNA was amplified by PCR; poly-histidine tag (N); made in house; host or cells: Sf9 insect cells (baculovirus, pFastBac HTc); the membrane fraction was used as the enzyme
T1 sequence (O15120 24-278): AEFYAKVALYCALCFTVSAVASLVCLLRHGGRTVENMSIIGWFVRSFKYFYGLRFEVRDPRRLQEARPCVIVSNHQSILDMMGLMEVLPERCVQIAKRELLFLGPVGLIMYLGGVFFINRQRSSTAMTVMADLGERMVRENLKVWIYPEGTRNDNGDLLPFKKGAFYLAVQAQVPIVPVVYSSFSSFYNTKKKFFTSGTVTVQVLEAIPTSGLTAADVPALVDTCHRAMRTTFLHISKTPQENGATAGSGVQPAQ
Kind of assay: LPAAT-β cell-free assay. The class given is biochemical. The note with it: Sf9 cell membrane overexpressing recombinant LPAAT-β. From the text:
For the construction of Baculovirus expression vectors, the full-length human LPAAT-β cDNA was amplified by PCR from the DNA template pCE9.LPAAT-β (West et al., DNA Cell Bid. 16.691-701 (1997)) using the primers 5′-[…] […] […] […]-3′ (olpb1F; SEQ ID NO:1) and 5′-[…] […] […]-3′ (olpb1R; SEQ ID NO:2). The ˜870 bp fragment generated was reamplified by PCR using the primers 5′ […] […] […] […] ATC-3′ (olpb2F; SEQ ID NO:3) and 5′-[…] […] […]-3′ (olpb1R; SEQ ID NO:2). The ˜890 bp fragment generated was then cleaved with Sal I and Xba I for insertion into pFastBac™ HTc vector (Life Technologies, Gaithersberg, M.d.) between the Sal I and Xba I sites for the generation of the plasmid pFB.LPAAT-β. This plasmid was then transformed into E. coli DH10Bac™ (Life Technologies, Gaithersberg, M.d.) for the generation of recombinant Bacmid DNA for transfection in HighFive (Invitrogen, San Diego, Calif.) or SF9 insect cells for the production of recombinant Baculovirus stocks using the protocol described in the Bac-to-Bac® Baculovirus Expression System (Life Technologies, Gaithersberg, M.d.), a eukaryotic expression system for generating recombinant baculovirus through site-specific transposition in E. coli. Viral stocks harvested from the transfected cells can then be used to infect fresh insect cells for the subsequence expression of LPAAT-β fusion protein with a poly-histidine tag and a myc-epitope near its N-terminus. The membrane fraction from these Sf9 cells would be the source of LPAAT enzyme.
For the preparation of membranes from Sf9 Cells, all steps are performed on ice or at 4° C. Sf9 cell pellets (˜10^8 cells) were thawed and resuspended in 1-2 ml of buffer A (20 mM Hepes, pH 7.5, 1 mM DTT, 1 mM EDTA, 20% w/v glycerol, 1 mM Benzamidine, 1 μg/ml soybean trypsin inhibitor (SBTI), 1 μug/ml pepstatin A) w/o DTT but with 1 mM Pefabloc. The cells were lysed by sonication using a Branson Sonifier at output=2, duty cycle=2, 10 pulses each at 10 s. with the tip of small sonicator probe submerged but not touching the walls. DTT was then added to 1 mM from a 1 M stock. The samples were centrifuged at 1500 rpm for 5 min. The low speed supernatant was saved and centrifuged (TLA 100.3 rotor, polycarbonate tubes, 2 ml/tube or 1.5 ml/tube minimum) at 100000×g for 1 hr. The high speed pellet was resuspend in Buffer A with a probe sonicator (10 pulses @ output #2 and duty cycle 20%) as a source of LPAAT enzyme.
LPAAT-β catalyzes the transfer of an acyl group from a donor such as acyl-CoA to LPA. The transfer of the acyl group from acyl-CoA to LPA leads to the release of free CoA, which can be reacted with the thiol reagent, 5,5′-dithiobis(2-nitrobenzoic acid) (DTNB). The reaction between DTNB and the free sulfhydryl group from CoA generates a yellow-colored product, 3-carboxylato-4-nitrothiophenolate (CNP), that absorbs at 413 nm. LPAAT-β derived from Sf9 cell membrane overexpressing LPAAT-β were resuspended in HEPES saline buffer (20 mM HEPES pH 7.5, 150 mM NaCl), 1 mg/ml BSA and 72 μl aliquots were distributed into 96-well microtiter plates. 8 μl of compound of interest at 200 μM dissolved in 100% DMSO was added into each well. […] of 1 mM 18:1-CoA and 1 mM sn-1-18:1 lysoPA was then added to each well to initiate the reaction and allowed to run at room temperature for 25 min. 100 μl of 1 mM DTNB in 100% ethanol was then added to each well to quench the reaction and for color development. The absorbance at 405 nm, measured using a spectrophotometer plate reader, is proportional to the activity of LPAAT-2 in the sample. This colorimetric assay was used for the high throughput screening of LPAAT inhibitors.
The radiometric assay was carried out in Sf9 cell membrane overexpressing LPAAT-β resuspended in HEPES-saline buffer, pH 7.5, 1 mg/ml BSA, 1 mM EDTA and 200 μM [^14C]18:1-CoA and 200 μM sn-1-18:1 lysoPA.

Consider `CCOc1ccc(Cl)cc1-c1cc(Nc2ccc(CO)cc2)nc(N)n1` [Example 44, {4-[2-Amino-6-(5-chloro-2-ethoxy-phenyl)-pyrimidin-4-ylamino]-phenyl}-methanol], for which the IC50 stood at 75 nM.
As for `CCOC(=O)c1cccc(Nc2cc(-c3cc(Cl)ccc3C)nc(N)n2)c1` [Example 114, 3-[2-Amino-6-(5-chloro-2-methyl-phenyl)-pyrimidin4-ylamino]-benzoic acid ethyl ester], the IC50 came out at 42 nM.
Consider `Cc1ccc(Nc2cc(-c3cc(Cl)ccc3C)nc(N)n2)cc1` [Example 26, 6-(5-Chloro-2-methyl-phenyl)-N*4*-p-tolyl-pyrimidine-2,4-diamine], for which the IC50 worked out at 94 nM.
Turning to `CCCOc1ccc(Br)cc1-c1cc(Nc2ccc(Cl)cc2)nc(N)n1` [Example 135, 6-(5-Bromo-2-propoxy-phenyl)-N*4*-(4-chloro-phenyl)-pyrimidine-2,4-diamine], the IC50 came out at 8 nM.
For the molecule `CCOc1ccc(Cl)cc1-c1cc(Nc2ccc(S(C)(=O)=O)cc2)nc(N)n1` [Example 124, 6-(5-chloro-2-ethoxyphenyl)-N*4*-(4-methanesulfonylphenyl)pyrimidine-2,4-diamine], the IC50 was determined as 110 nM.
Regarding `CCOc1ccc(Br)cc1-c1cc(Nc2cnc3ccccc3c2)nc(N)n1` [Example 144, 6-(5-Bromo-2-ethoxy-phenyl)-N*4*-quinolin-3-yl-pyrimidine-2,4-diamine], the IC50 worked out at 460 nM.
On to `Cc1ccc(Cl)cc1-c1cc(Nc2ccc(Br)cc2)ncn1` [Example 172, (4-Bromo-phenyl)-[6-(5-chloro-2-methyl-phenyl)-pyrimidin-4-yl]-amine], for which the IC50 worked out at 45 nM.
For the molecule `COCCOc1ccc(Br)cc1-c1cc(Nc2ccc(Cl)cc2)nc(N)n1` [Example 143, 6-[5-Bromo-2-(2-methoxy-ethoxy)-phenyl]-N*4*-(4-chloro-phenyl)-pyrimidine-2,4-diamine], the IC50 worked out at 22 nM.
For the molecule `Cc1ccc(Cl)cc1-c1cc(Nc2ccc3cn[nH]c3c2)nc(N)n1` [Example 31, 6-(5-Chloro-2-methyl-phenyl)-N*4*-(1H-indazol-6-yl)-pyrimidine-2,4-diamine], the IC50 stood at 32 nM.
`CCOc1ccc(Cl)cc1-c1cc(Nc2ccccc2Cl)nc(N)n1` [Example 117, 6-(5-Chloro-2-ethoxy-phenyl)-N*4*-(2-chloro-phenyl)-pyrimidine-2,4-diamine]: the IC50 came out at 4900 nM.
Take `CCOc1ccc(Cl)cc1-c1cc(Nc2ccc(COC(=O)CCC(=O)O)cc2)nc(N)n1` [Example 63, Succinic acid mono-{4-[2-amino-6-(5-chloro-2-ethoxy-phenyl)-pyrimidin-4-ylamino]-benzyl}-ester]: the IC50 stood at 83 nM.
Same read-out and setting: as for `COc1ccc(Cl)cc1-c1cc(Nc2ccc(Cl)cc2)nc(C)n1` [Example 38, [6-(5-Chloro-2-methoxy-phenyl)-2-methyl-pyrimidin-4-yl]-(4-chloro-phenyl)-amine], the figure is 50 nM; as for `Nc1nc(Nc2ccc(O)cc2)cc(-c2cc(Cl)ccc2Cl)n1` [Example 17, 4-[2-Amino-6-(2,5-dichloro-phenyl)-pyrimidin-4-ylamino]-phenol], 240 nM; as for `CCOc1ccc(Cl)cc1-c1cc(Nc2ccc3cn[nH]c3c2)nc(N)n1` [Example 54, 6-(5-Chloro-2-ethoxy-phenyl)-N*4*-(1H-indazol-6-yl)-pyrimdine-2,4-diamine], 24 nM.
Regarding `CCOc1ccc(Br)cc1-c1cc(Nc2ccc(C(C)=O)cc2)nc(N)n1` [Example 127, 1-{4-[2-amino-6-(5-bromo-2-ethoxyphenyl)pyrimidin-4-ylamino]phenyl}ethanone], the IC50 was 34 nM.
`Cc1ccc(Br)cc1-c1cc(Nc2ccc(CCO)cc2)nc(N)n1` [Example 100, 2-{4-[2-Amino-6-(5-bromo-2-methyl-phenyl)-pyrimidin-4-ylamino]-phenyl}-ethanol]: the IC50 is 49 nM.
In the case of `CCOc1ccc(Cl)cc1-c1cc(Nc2ccc(CCCCO)cc2)nc(N)n1` [Example 93, 4-{4-[2-Amino-6-(5-chloro-2-ethoxy-phenyl)-pyrimidin4-ylamino]-phenyl}-butan-1-ol], the IC50 worked out at 120 nM.
In the case of `CCCCCCOc1ccc(Br)cc1-c1cc(Nc2ccc(Cl)cc2)nc(N)n1` [Example 145, 6-(5-Bromo-2-hexyloxy-phenyl)-N*4*-(4-chloro-phenyl)-pyrimidine-2,4-diamine], the 50% inhibitory concentration (IC50) is 5 nM.
On to `CCOc1ccc(Br)cc1-c1cc(Nc2ccc(B(O)O)cc2)nc(N)n1` [Example 159, 4-[2-Amino-6-(5-bromo-2-ethoxy-phenyl)-pyrimidin-4-ylamino]-phenyl-boronic acid], for which the IC50 turned out to be 200 nM.
Turning to `CCOc1ccc(Br)cc1-c1cc(Nc2ccc(CO)cc2)nc(N)n1` [Example 62, {4-[2-Amino-6-(5-bromo-2-ethoxy-phenyl)-pyrimidin4-ylamino]-phenyl}-methanol], the IC50 was determined as 80 nM.
Same read-out and setting: the figure for `Nc1nc(Nc2ccc(Cl)cc2)cc(-c2cc(Br)ccc2OCCN2CCOCC2)n1` [Example 149, 6-[5-Bromo-2-(2-morpholin4-yl-ethoxy)-phenyl]-N*4*-(4-chloro-phenyl)-pyrimidine-2,4-diamine] is 71 nM.
As to `COc1ccc(Cl)cc1-c1nc(N)nc(Nc2ccc3cn[nH]c3c2)c1C` [Example 51, 6-(5-Chloro-2-methoxy-phenyl)-5-methyl-N*4*-(1H-indazol-6-yl)-pyrimidine-2,4-diamine], the “LPAAT-β cell-free assay (IC50, μM)” value is “Lessactive”.
`CCOc1ccc(Cl)cc1-c1cc(Nc2ccc(OCCO)cc2)nc(N)n1` [Example 90, 2-{4-[2-Amino-6-(5-chloro-2-ethoxy-phenyl)-pyrimidin-4-ylamino]-phenoxy}-ethanol]: the IC50 was determined as 780 nM.
Take `CNC(=O)c1cc(Nc2cc(-c3cc(Br)ccc3C)nc(N)n2)ccc1Cl` [Example 75, 5-[2-Amino-6-(5-bromo-2-methyl-phenyl)-pyrimidin-4-ylamino]-2-chloro-N-methyl-benzamide]: the half-inhibitory concentration (IC50) stood at 180 nM.
The same measure, in the same setting: as for `CCOc1ccc(Cl)cc1-c1cc(Nc2ccc(COC(=O)CN)cc2)nc(N)n1` [Example 64, Amino acetic acid-4-[2-amino-6-(5-chloro-2-ethoxy-phenyl)-pyrimidin-4-ylamino]-benzyl ester], the figure is 1500 nM; as for `Nc1nc(Nc2ccc(Cl)cc2)cc(-c2ccccc2C(F)(F)F)n1` [Example 105, N*4*-(4-Chloro-phenyl)-6-(2-trifluoromethyl-phenyl)-pyrimidine-2,4-diamine], 1800 nM.
For the molecule `CN(C)CCCOc1ccc(Br)cc1-c1cc(Nc2ccc(Cl)cc2)nc(N)n1` [Example 156, 6-[5-Bromo-2-(3-dimethylamino-propoxy)-phenyl]-N*4*-(4-chloro-phenyl)-pyrimidine-2,4-diamine], the IC50 stood at 1400 nM.
